The values that follow come from patent publication US20100261765A1, “MINERALOCORTICOID RECEPTOR MODULATORS” (priority 2007, published 2010).

In series [1] the target is T1, recombinant rhesus mineralocorticoid receptor (Macaca mulatta, UniProt A0A5F8ATS5).
T1 construct: made in house; host or cells: insect cells infected with recombinant baculovirus; clarified lysate used
T1 sequence (A0A5F8ATS5 1-984): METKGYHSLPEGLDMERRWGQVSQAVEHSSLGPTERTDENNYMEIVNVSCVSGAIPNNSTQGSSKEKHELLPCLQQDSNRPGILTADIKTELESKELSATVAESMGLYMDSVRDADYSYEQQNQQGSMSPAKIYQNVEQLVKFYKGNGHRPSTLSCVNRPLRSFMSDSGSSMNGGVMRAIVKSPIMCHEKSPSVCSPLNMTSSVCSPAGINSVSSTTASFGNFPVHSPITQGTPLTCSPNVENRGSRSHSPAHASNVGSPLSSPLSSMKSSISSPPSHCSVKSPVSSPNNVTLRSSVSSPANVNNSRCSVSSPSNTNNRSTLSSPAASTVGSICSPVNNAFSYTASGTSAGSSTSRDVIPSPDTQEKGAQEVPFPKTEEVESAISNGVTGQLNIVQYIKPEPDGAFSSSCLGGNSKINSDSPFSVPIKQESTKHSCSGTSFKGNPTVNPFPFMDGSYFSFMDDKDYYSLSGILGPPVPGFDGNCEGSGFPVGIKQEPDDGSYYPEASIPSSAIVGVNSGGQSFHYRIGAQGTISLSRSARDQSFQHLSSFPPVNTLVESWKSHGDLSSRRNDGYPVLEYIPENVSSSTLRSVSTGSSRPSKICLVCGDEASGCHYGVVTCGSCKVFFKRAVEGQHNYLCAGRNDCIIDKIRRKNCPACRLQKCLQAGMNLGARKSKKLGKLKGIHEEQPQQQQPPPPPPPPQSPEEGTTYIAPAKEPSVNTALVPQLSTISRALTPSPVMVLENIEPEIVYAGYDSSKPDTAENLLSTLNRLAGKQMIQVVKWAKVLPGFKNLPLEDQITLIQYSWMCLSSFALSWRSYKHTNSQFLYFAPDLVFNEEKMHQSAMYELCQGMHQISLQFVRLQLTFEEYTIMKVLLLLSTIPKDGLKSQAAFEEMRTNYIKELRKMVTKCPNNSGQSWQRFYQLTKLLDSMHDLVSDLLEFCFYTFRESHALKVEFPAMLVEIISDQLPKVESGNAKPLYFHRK
In words: Mineralocorticoid receptor binding affinity, [3H]-aldosterone filter binding assay. As to the method: Measurement of Mineralocorticoid Receptor Binding Affinity
The binding affinity of compounds for the mineralocorticoid receptor was determined by measuring their ability to prevent binding of radiolabeled aldosterone to recombinant rhesus mineralocorticoid receptor in a traditional filter binding assay protocol.
Rhesus mineralocorticoid receptor cDNA was cloned from a cDNA library using and used to prepare a recombinant baculovirus encoding the rhesus mineralocorticoid receptor coding sequence by standard molecular biological and cell biological methods. […] Cells were collected and lysed. The lysates were clarified by centrifugation and stored at −80 C until use in the radioligand binding assay.
[^3H]-Aldosterone (1 mCi/ml, 70-100 Ci/mmol) was purchased from Perkin Elmer (NET419). Test compounds were dissolved in DMSO and diluted in DMSO to 50 times the desired final concentrations for 3-fold serial dilution dose response curves. […] The insect cell lysate containing rhesus mineralocorticoid receptor was thawed and diluted to 0.7 mg protein/mL. Assay were started by combining 20 μL of test compound solution, 920 μL of diluted insect cell lysate, and 60 μL of [^3H]-aldosterone working solution in 2-mL 96-well polypropylene square well plates (USA Scientific) at 20° C. The mixture was incubated for 3 hr with continuous agitation on a platform shaker. […] The filter plate was washed 3 times with 0.5 mL of 50 mM Tris-HCl, pH 7.4 and then dried overnight at 37° C. in a vacuum oven. […] Non-specific radioligand binding was determined by adding non-radiolabeled aldosterone (0.5 mM in DMSO) to the assay mixture to a final concentration of 10 μM in place of test compound. IC50 and Ki values were determined using a four parameter logistic fit using a customized assay data analyzer software package.

For series [2], the target named is T2, Cav1.2 (Homo sapiens, UniProt Q13936).
T2 construct: expressed in transfected cells; host or cells: HEK293 cell line (Xia, et al., 2004) also expressing Kir2.3
In words: Calcium channel block, FLIPR TETRA fluorescence assay in HEK293 cells expressing L-type calcium channels. It is filed as cell-based. The conditions noted are these: pH 7.2, 25 mM potassium; for inhibition at 30 min, 0.3 μM: 0.3 μM compound, read-out: FLIPRIETRA Cav1.2 % Inhibition 0.3 μM; for inhibition at 30 min, 1 μM: 1 μm compound, read-out: FLIPRIETRA Cav1.2 % Inhibition 1 μm; for inhibition at 30 min, 3 μM: 3 μm compound, read-out: FLIPRIETRA Cav1.2 % Inhibition 3 μm; for inhibition at 30 min, 10 μM: 10 μm compound, read-out: FLIPRIETRA Cav1.2 % Inhibition 10 μm. As to the method:
Measurement of Calcium Channel Block
A high-throughput fluorescence assay for state-dependent block of L-type channels was established as a counterscreen for blockers of N-type calcium channels. […] This allows the cell membrane potential to be preset during compound incubation, which can be used to assay state-dependent channel block. Running the assay in the presence of high potassium (25 mM) sets the membrane potential to a value (−35 mV) at which approximately half of the calcium channels are inactivated and some are open. This condition favors block by many L-type calcium channel blockers that lower blood pressure, including dihydropyridines, phenylalkylamines and benzothiazepines.
Initially, the compounds were incubated in 0.005 μM calcium and 25 mM potassium for 30 minutes. Calcium influx was triggered by buffer addition that raises the calcium concentration to 2 mM while maintaining the potassium concentration at 25 mM. Changes in intracellular calcium were then monitored using a calcium-sensitive fluorescent dye (fluo-4) and a FLIPR^TETRA plate reader.
The following experimental protocol was used:
1. Cells were seeded in a Poly-D-Lysine Coated 384-well plate (50 μl/well) and incubated overnight at 37° C. under 10% CO2;
4. Cells were then incubated in the dark at 25° C. for 30 minutes;
5. […] 25 mM KCl, 0.005 mM CaCl2, 1.7 mM MgCl2, 10 HEPES, pH=7.2;
6. 0.025 ml of 25 mM K PPB was then added, with or without the presence of a test compound;
7. Cells incubated in the dark at 25° C. for 30 min
8. Cell plates are then read on the FLIPR^TETRA instrument, Excitation=480 nm, Emission=535 nm;

Series [3] deals with patients suffering from advanced CHF. The conditions noted are these: in combination with standard CHF therapy; cited from earlier work.
Setting [4] is: average of Rep#1 and Rep#2, read-out: MRBIND Ki (nM) Average.
[5] abbreviates: replicate 1, read-out: MRBIND Ki (nM) Rep#1.
[6] abbreviates: replicate 2, read-out: MRBIND Ki (nM) Rep#2.

Like-named read-outs stand apart in the source and are kept apart here.

T2 sequence (Q13936 whole entry): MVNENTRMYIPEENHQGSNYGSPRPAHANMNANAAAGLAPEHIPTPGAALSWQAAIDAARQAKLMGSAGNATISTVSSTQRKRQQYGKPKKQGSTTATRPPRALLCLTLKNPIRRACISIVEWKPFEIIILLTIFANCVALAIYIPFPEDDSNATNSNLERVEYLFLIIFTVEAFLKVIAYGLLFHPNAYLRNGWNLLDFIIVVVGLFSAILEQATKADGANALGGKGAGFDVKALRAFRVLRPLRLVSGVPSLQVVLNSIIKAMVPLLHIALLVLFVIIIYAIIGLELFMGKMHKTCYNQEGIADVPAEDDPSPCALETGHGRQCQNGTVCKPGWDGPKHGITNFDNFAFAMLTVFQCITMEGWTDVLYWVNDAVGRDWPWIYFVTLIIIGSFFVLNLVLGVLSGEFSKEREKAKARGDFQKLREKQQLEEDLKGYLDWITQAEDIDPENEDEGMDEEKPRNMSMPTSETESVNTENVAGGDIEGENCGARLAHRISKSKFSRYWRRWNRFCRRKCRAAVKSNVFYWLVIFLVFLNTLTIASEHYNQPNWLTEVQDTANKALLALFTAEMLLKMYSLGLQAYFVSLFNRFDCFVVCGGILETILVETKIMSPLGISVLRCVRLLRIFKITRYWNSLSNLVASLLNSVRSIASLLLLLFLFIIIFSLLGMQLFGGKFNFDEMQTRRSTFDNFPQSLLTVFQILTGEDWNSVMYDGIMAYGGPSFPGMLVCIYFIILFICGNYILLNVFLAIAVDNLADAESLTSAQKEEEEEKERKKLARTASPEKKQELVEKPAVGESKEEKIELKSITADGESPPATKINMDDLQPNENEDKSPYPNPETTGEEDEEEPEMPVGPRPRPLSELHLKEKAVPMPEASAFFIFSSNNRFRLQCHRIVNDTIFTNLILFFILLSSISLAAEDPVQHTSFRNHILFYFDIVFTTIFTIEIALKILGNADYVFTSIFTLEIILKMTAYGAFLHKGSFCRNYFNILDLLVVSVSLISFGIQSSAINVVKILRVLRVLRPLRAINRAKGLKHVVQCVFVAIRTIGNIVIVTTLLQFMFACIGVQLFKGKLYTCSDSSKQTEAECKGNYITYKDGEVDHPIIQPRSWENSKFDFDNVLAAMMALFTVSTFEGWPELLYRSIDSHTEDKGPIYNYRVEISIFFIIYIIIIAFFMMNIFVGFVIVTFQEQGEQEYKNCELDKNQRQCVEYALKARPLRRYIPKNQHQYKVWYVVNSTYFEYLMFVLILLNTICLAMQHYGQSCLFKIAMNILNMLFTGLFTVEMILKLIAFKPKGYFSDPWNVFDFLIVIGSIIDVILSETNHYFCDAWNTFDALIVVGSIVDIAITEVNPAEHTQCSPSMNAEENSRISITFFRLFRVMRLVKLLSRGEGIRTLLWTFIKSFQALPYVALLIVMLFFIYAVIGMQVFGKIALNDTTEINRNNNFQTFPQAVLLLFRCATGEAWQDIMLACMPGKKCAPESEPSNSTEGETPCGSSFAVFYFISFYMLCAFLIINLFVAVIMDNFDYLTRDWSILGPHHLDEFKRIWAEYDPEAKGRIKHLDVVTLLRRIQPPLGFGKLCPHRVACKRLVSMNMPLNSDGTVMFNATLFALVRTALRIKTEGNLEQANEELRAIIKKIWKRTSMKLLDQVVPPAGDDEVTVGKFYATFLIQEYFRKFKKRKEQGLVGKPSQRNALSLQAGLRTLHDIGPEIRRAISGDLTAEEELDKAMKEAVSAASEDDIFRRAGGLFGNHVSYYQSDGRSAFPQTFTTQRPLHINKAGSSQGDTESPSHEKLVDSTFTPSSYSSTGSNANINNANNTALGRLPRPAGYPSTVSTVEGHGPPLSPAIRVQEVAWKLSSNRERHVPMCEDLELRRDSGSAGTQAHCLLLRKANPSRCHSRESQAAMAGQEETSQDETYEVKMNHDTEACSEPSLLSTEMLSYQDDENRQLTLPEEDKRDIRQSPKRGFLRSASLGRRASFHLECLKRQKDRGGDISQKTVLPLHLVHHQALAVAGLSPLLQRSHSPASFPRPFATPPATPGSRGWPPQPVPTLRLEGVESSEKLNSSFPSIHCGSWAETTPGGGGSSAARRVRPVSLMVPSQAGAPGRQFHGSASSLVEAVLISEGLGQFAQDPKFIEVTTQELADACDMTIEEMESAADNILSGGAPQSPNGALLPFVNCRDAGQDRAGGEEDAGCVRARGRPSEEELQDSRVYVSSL
T2 sequence (P54289 25-946 partner limits assumed): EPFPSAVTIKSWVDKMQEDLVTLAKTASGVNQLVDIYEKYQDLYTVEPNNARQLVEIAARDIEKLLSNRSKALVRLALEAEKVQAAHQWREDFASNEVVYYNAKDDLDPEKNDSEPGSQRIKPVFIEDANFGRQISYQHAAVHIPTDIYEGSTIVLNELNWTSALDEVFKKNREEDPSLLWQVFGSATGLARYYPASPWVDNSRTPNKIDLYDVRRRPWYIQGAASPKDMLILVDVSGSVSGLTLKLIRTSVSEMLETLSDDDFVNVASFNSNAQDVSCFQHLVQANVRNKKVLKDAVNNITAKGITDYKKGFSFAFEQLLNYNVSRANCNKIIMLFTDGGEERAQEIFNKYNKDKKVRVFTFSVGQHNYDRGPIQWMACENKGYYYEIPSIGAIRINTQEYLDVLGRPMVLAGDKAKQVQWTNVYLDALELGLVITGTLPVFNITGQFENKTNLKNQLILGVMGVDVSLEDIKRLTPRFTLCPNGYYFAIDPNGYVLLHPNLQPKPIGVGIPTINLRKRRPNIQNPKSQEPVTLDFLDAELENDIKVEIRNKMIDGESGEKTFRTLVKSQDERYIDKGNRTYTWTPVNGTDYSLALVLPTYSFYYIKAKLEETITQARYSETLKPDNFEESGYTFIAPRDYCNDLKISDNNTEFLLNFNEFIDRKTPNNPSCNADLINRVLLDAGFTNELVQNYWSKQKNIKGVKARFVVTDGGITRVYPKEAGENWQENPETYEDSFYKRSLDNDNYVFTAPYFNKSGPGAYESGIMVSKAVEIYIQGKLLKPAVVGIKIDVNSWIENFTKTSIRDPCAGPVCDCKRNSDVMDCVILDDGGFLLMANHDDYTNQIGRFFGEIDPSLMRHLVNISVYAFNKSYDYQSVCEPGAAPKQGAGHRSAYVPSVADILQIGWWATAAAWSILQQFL
T2 sequence (P54289 947-1103 partner limits assumed): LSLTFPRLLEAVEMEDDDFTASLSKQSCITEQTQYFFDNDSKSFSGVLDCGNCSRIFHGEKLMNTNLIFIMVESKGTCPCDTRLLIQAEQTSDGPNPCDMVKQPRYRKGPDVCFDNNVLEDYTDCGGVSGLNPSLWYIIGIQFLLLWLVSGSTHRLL
T2 sequence (Q08289 whole entry partner): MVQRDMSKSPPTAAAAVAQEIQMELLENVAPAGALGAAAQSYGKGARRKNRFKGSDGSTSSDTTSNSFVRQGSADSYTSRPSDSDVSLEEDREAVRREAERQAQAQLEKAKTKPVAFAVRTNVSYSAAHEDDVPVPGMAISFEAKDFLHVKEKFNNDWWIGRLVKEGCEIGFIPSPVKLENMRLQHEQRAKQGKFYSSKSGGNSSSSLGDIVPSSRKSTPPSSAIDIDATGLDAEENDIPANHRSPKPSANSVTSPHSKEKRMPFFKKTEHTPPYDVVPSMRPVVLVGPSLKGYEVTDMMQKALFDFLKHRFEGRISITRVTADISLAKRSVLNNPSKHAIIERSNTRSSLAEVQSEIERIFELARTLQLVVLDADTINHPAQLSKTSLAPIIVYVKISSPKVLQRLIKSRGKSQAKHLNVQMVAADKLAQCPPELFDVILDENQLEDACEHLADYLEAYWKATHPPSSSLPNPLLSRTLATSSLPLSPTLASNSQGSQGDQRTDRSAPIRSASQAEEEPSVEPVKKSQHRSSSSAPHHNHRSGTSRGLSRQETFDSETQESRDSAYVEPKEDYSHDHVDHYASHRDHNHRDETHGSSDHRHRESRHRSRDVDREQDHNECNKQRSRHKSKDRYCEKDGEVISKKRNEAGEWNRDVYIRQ

By Ki is commonly meant the equilibrium dissociation constant of an inhibitor or competing ligand from its target. As a reminder, the inhibition is the change of the read-out against control, counted positive when it falls. `CCCC1=C(C(=O)OCC)C(c2ccccc2Cl)C(C#N)=C(SC)N1` (centres unmarked) [ethyl 4-(2-chlorophenyl)-5-cyano-6-(methylthio)-2-propyl-1,4-dihydropyridine-3-carboxylate]: the Ki in series [1] (setting [4]) worked out at 37.3 nM. Also, in series [1] (setting [5]), the Ki was 23.6 nM. The Ki in series [1] (setting [6]) was 51 nM. Also, in series [2], the inhibition at 30 min, 0.3 μM turned out to be 53%; the inhibition at 30 min, 1 μM came out at 73%; the inhibition at 30 min, 3 μM is 74%; the inhibition at 30 min, 10 μM worked out at 80%.
Regarding `CCOC(=O)C1=C(C)NC(C)=C(C(=O)OC(C)C)C1c1ccc([N+](=O)[O-])cc1` (centres unmarked) [ethyl isopropyl 2,6-dimethyl-4-(4-nitrophenyl)-1,4-dihydropyridine-3,5-dicarboxylate], the Ki in series [1] (setting [4]) stood at 114 nM. The Ki in series [1] (setting [5]) came to 77 nM. For the same compound, in series [1] (setting [6]), the Ki is 152 nM. Further, in series [2], the inhibition at 30 min, 0.3 μM turned out to be 28%; the inhibition at 30 min, 1 μM is 49%; the inhibition at 30 min, 3 μM amounted to 63%; the inhibition at 30 min, 10 μM stood at 73%. The inhibition at 30 min, 30 μM in series [2] (30 μm compound, read-out: FLIPRIETRA Cav1.2 % Inhibition 30 μm) turned out to be 86%.
With `CC(=O)S[C@@H]1CC2=CC(=O)CC[C@]2(C)[C@H]2CC[C@@]3(C)[C@@H](CC[C@@]34CCC(=O)O4)[C@H]12` [spironolactone], in series [3], the “reduction of cardiac related mortality” value is 30% and the “reduction of frequency of hospitalization” value is listed as 33%.
